The record followed here is patent US12630536B2, “Cyanotriazine derivative, preparation method therefor, and application thereof” (Chengdu Fanxi Biopharma Co., LTD., priority 2020, dated 2026).

In assay [1] the test system is TR alpha-UAS-bla HEK 293T Cells. Briefly: TR cell-based agonist detection, β-lactamase reporter (LiveBLAzer FRET B/G), TR alpha. As to the method: (§1) A method for testing a THR-α/β activation activity of a compound by an in-vitro cell level was as follows.
(§2) Compounds were transferred to a 384-well plate by an ECHO liquid workstation, and each compound was diluted by 3 times with 10 gradient concentrations, which was in triplicate. 1.5×10^4 DMEM-cultured cells (TR beta-UAS-bla HEK 293T Cells) or 1.0×10^4 TR alpha-UAS-bla HEK 293T Cells were placed in the 384-well plate. HEK 293T-TR beta was incubated in an incubator for 16 hours, and HEK 293T-TR alpha was incubated in an incubator for 24 hours. A LiveBLAzer™-FRET B/G (CCF4-AM) substrate was added into the cell plate to detect expression of β-lactamase in cells, and under excitation of 409 nm, a product produced fluorescence with a wavelength of 447 nm. When the β-lactamase was not expressed, under excitation of 409 nm, fluorescence with a wavelength of 520 nm was directly produced through FRET. Combination between the compound and the protein was determined by detecting a ratio of the two kinds of fluorescence (blue/green, 460 nm/530 nm), thus calculating EC50 of the compound. […] Calculation of a factor Z (greater than 0.5) would be used for monitoring a stability of each experiment.

Assay [2] relates to golden hamsters fed with high-fat feedstuffs (hyperlipidemia model). Briefly: In-vivo pharmacodynamic test, high-fat feed hyperlipidemia model. Particulars: oral once per day, 4 weeks. As to the method:
Administration mode: oral administration was carried out once per day with a time interval of 24 hours for 4 consecutive weeks. During the experiment, the animals were weighed twice per week, and a remaining amount and an adding amount of the feedstuffs were recorded before each blood sampling detection for calculating a food intake of each group of animals during administration.
The food utilization rate represents a weight gain in gram of an animal taking per 100 g of feedstuffs, so that food utilization rate=weight gain (g)/food intake (100 g)×100%.

For assay [3], the system named is TR beta-UAS-bla HEK 293T Cells. The assay is described as follows: TR cell-based agonist detection, β-lactamase reporter (LiveBLAzer FRET B/G), TR beta. As to the method: as §1, §2

`Cn1cnc2ccc(Oc3c(Br)cc(-n4nc(C#N)c(=O)[nH]c4=O)cc3Br)cc21` [Compound 1, 2-(3,5-dibromo-4-((1-methyl-1H-benzo[d]imidazol-6-yl)oxy)phenyl)-3,5-dioxo-2,3,4,5-tetra hydro-1,2,4-triazine-6-carbonitrile]: the Emax in assay [1] (Homo sapiens, HEK-293T, 24 h, TR_cell-based agonist, TR_α, read-out: Maximum activity ratio) is 205%; in assay [3] (Homo sapiens, HEK-293T, 16 h, TR_cell-based agonist, TR_β, read-out: Maximum activity ratio (A460/A530)), 41.1%. Besides, the EC50 in assay [1] (Homo sapiens, Detection of TR_cell-based agonist, HEK 293T-TR alpha, 24 hours, read-out: TR_α_EC50) came to 4.32 µM; in assay [3] (Homo sapiens, Detection of TR_cell-based agonist, HEK 293T-TR beta, 16 hours, read-out: TR_β_EC50), 0.577 µM. Moreover, the “Test cpd/T3 (maximum ratio)” value in assay [1] (TR_cell-based agonist, TR_α, maximum relative to T3) is 93.2%. Further, in assay [2], the “food utilization rate (weight gain (g)/food intake (100 g)×100%)” value is “reduced significantly”. The “level of triglyceride in blood (TG)” value in assay [2] (5 and 15 mg/kg, compared with the model group) is “significantly reduces”. Besides, the “Measurement of cpd/T3 (maximum ratio)” value in assay [3] (TR_cell-based agonist, TR_β, maximum relative to T3) is recorded as 7.5%. In addition, in assay [3] (TR_cell-based agonist, ratio TR_α EC50 / TR_β EC50), the α/β is listed as 7.49.
